{"source": "patent US20210347780A1", "about": "“CDPK1 INHIBITORS, COMPOSITIONS, AND METHODS RELATED THERETO” (Vyera Pharmaceuticals, LLC, priority 2018, published 2021)"}
{"target": "T1, T. gondii CDPK1 (tgCDPK1) (Toxoplasma gondii, UniProt Q9BJF5)", "T1 sequence (Q9BJF5 1-507)": "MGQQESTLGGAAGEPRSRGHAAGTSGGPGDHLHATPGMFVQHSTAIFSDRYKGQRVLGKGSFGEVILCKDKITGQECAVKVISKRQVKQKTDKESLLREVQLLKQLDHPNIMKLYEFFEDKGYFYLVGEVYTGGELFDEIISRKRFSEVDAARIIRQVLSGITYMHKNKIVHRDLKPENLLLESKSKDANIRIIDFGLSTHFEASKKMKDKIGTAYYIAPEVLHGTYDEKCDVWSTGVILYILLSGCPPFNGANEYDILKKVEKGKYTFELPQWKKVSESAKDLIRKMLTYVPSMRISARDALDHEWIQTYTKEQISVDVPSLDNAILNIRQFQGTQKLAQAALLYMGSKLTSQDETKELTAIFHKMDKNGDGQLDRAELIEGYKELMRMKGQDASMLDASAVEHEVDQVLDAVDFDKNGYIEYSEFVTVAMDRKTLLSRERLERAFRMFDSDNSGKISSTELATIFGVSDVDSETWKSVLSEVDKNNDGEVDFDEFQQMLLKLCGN", "assay": "biochemical", "details": "inhibition of T. gondii CDPK1; at least three independent replicates; read-out: tgCDPK1 IC50", "procedure": "Certain of the compounds prepared as described above were assayed to determine their IC50 for inhibition of T. gondii CDPK1 (tgCDPK1). At least three independent replicates of the assay were conducted for each compound tested.", "units": {"IC50": "nM"}}
{"compound": "COC1CCCCC1n1nc(Oc2cc(C(F)(F)F)ccn2)c2c(N)ncnc21", "note": "(stereo not shown) [Compound 236]", "IC50": 85.6}
{"compound": "CO[C@H]1CC[C@H](n2nc(Oc3cc(C(F)(F)F)ccn3)c3c(N)ncnc32)CC1", "note": "[Compound 237]", "IC50": 38.1}
{"compound": "CO[C@H]1CC[C@@H](n2nc(Oc3cc(C(F)(F)F)ccn3)c3c(N)ncnc32)CC1", "note": "[Compound 238]", "IC50": 44.7}
{"compound": "Nc1ncnc2c1c(Oc1cc(C(F)(F)F)ccn1)nn2[C@H]1CC[C@@H](N)CC1", "note": "[Compound 239]", "IC50": 23.1}
{"compound": "CC(C)(C)OC(=O)N[C@H]1CC[C@@H](n2nc(Oc3cc(C(F)(F)F)ccn3)c3c(N)ncnc32)C1", "note": "[Compound 240]", "IC50": 12.1}
{"compound": "Nc1ncnc2c1c(Oc1cc(C(F)(F)F)ccn1)nn2[C@H]1CC[C@@H](CO)CC1", "note": "[Compound 242]", "IC50": 15.1}
{"compound": "Nc1ncnc2c1c(Oc1cc(C(F)(F)F)ccn1)nn2[C@H]1CC[C@H](CO)CC1", "note": "[Compound 243]", "IC50": 10.3}
{"compound": "Nc1ncnc2c1c(Oc1cc(C(F)(F)F)ccn1)nn2CC1(C(F)(F)F)CC1", "note": "[Compound 244]", "IC50": 31}
{"compound": "Nc1ncnc2c1c(Oc1cccc(Cl)c1)nn2Cc1cc[nH]c1", "note": "[Compound 247]", "IC50": 19.4}
{"compound": "Nc1ncnc2c1c(Oc1cc(C(F)(F)F)ccn1)nn2[C@H]1COC[C@H](N)C1", "note": "[Compound 248]", "IC50": 60.7}
{"compound": "Nc1ncnc2c1c(Oc1cc(C(F)(F)F)ccn1)nn2[C@H]1COC[C@@H](N)C1", "note": "[Compound 249]", "IC50": 55}
{"compound": "Nc1ncnc2c1c(Oc1cccc(Cl)c1)nn2CC1(CO)CC1", "note": "[Compound 250]", "IC50": 34.9}
{"compound": "Nc1ncnc2c1c(Oc1cc(C(F)(F)F)ccn1)nn2[C@@H]1CC[C@H](N)C1", "note": "[Compound 251]", "IC50": 42.1}
{"compound": "Nc1ncnc2[nH]nc(Oc3cccc(Cl)c3)c12", "note": "[Compound 252]", "IC50": 77.3}
{"compound": "CC(C)(C)n1nc(Cc2c[nH]c3ccccc23)c2c(N)ncnc21", "note": "[Compound 254]", "IC50": 9}
{"compound": "CC(C)(C)n1nc(Cc2cccc(C#N)c2)c2c(N)ncnc21", "note": "[Compound 255]", "IC50": 13.4}
{"compound": "Nc1ncnc2c1c(Oc1cc(C(F)(F)F)ccn1)nn2C1CCCC1", "note": "[Compound 257]", "IC50": 23.4}
{"compound": "CC(C)(C)n1nc(Oc2cc(C(F)(F)F)ccn2)c2c(N)ncnc21", "note": "[Compound 258]", "IC50": 13.9}
{"compound": "CC(C)(C)n1nc(Oc2cc(C#N)ccn2)c2c(N)ncnc21", "note": "[Compound 259]", "IC50": 18.1}
{"compound": "CC(C)(C)n1nc(Oc2cc(C(N)=O)ccn2)c2c(N)ncnc21", "note": "[Compound 260]", "IC50": 40.5}
{"compound": "Nc1ncnc2c1c(Oc1cc(Cl)ccn1)nn2C1CCC(F)(F)CC1", "note": "[Compound 261]", "IC50": 35.3}
{"compound": "CC(C)(C)n1nc(Oc2cc(Cl)ccn2)c2c(N)ncnc21", "note": "[Compound 262]", "IC50": 12}
{"compound": "N#Cc1ccnc(Oc2nn(CC3CCNCC3(F)F)c3ncnc(N)c23)c1", "note": "(stereo not shown) [Compound 263]", "IC50": 39.2}
{"compound": "CC(C)(C)n1nc(Oc2cc(O)ccn2)c2c(N)ncnc21", "note": "[Compound 264]", "IC50": 13.9}
{"compound": "CC(C)(CO)Cn1nc(Oc2cccc(Cl)c2)c2c(N)ncnc21", "note": "[Compound 265]", "IC50": 47.9}
{"compound": "C=CC(O)Cn1nc(Oc2cc(C(F)(F)F)ccn2)c2c(N)ncnc21", "note": "(stereo not shown) [Compound 268]", "IC50": 11.7}
{"compound": "Nc1ncnc2c1c(Oc1cc(C(F)(F)F)ccn1)nn2CC1CCB(O)O1", "note": "(stereo not shown) [Compound 269]", "IC50": 28.6}
{"compound": "Nc1ncnc2c1c(Oc1cc(C(F)(F)F)ccn1)nn2CC1CC(B(O)O)C1", "note": "(stereo not shown) [Compound 270]", "IC50": 28.7}
{"compound": "Nc1ncnc2c1c(Oc1cc(C(F)(F)F)ccn1)nn2C1CCNCC1(F)F", "note": "(stereo not shown) [Compound 271]", "IC50": 19.8}
{"compound": "Nc1ncnc2c1c(Oc1cc(C(F)(F)F)ccn1)nn2C1(C(F)(F)F)CCC1", "note": "[Compound 272]", "IC50": 20.7}
{"compound": "Nc1ncnc2c1c(Oc1cc(C(F)(F)F)ccn1)nn2CC1CC(O)C1", "note": "(stereo not shown) [Compound 273]", "IC50": 35.8}
{"compound": "Nc1ncnc2c1c(Oc1cc(C(F)(F)F)ccn1)nn2C1CC(F)(F)CCC1O", "note": "(stereo not shown) [Compound 274]", "IC50": 35}
{"compound": "CC(=O)Oc1ccnc(Oc2nn(C3CCC(F)(F)CC3)c3ncnc(N)c23)c1", "note": "[Compound 277]", "IC50": 21.5}
{"compound": "Nc1ncnc2c1c(Oc1cc(O)ccn1)nn2[C@H]1CCCC[C@@H]1O", "note": "[Compound 278]", "IC50": 18.9}
{"compound": "Nc1ncnc2c1c(Oc1cc(C(F)(F)F)ccn1)nn2C1CCCCC1(F)F", "note": "(stereo not shown) [Compound 279]", "IC50": 35.7}
{"compound": "Nc1ncnc2c1c(Oc1cc(C(F)(F)F)ccn1)nn2CC(F)(F)F", "note": "[Compound 280]", "IC50": 38.6}
{"compound": "COc1ccnc(Oc2nn([C@@H]3CCCC[C@H]3O)c3ncnc(N)c23)c1", "note": "[Compound 281]", "IC50": 26.2}
{"compound": "COc1ccnc(Oc2nn([C@H]3CCCC[C@H]3O)c3ncnc(N)c23)c1", "note": "[Compound 282]", "IC50": 41.3}
{"compound": "CCOC(=O)C1(n2nc(Oc3cc(C(F)(F)F)ccn3)c3c(N)ncnc32)CCC1", "note": "[Compound 287]", "IC50": 728}
{"compound": "Nc1ncnc2c1c(Oc1cc(C(F)(F)F)ccn1)nn2C1(C(=O)O)CCC1", "note": "[Compound 288]", "IC50": 11900}
{"compound": "Nc1ncnc2c1c(Oc1cc(C(F)(F)F)ccn1)nn2C1CCCCC1=O", "note": "(stereo not shown) [Compound 289]", "IC50": 98.5}
{"compound": "Nc1ncnc2c1c(Oc1cc(O)ccn1)nn2C1CC(F)C1", "note": "(stereo not shown) [Compound 290]", "IC50": 8.7}
{"compound": "(trans)-3-(4-amino-3-((5-fluoro-1H-indol-3-yl)methyl)-1H-pyrazolo[3,4-d]pyrimidin-1-yl)cyclobutan-1-ol [Compound 154]", "IC50": 11.8}
